Test results taken from PMC11901700, “A Sweet Almond Globulin Multifunctional Peptide: Identification, In Silico Screening, Restraint Mechanisms to Keap1 and ACE, and Antihypertensive and Ferrous Transport Efficiency” (Nutrients, 2025).
Where no end group is shown, it is not given here.

Key:
[1] = ABTS+ quenching ability; type: physicochemical; details: at 100 μg/mL; absorbance at 734 nm; mean ± standard error
Experimental: The ABTS^+ quenching ability was determined following the same procedures described by Vásquez et al.. The same system without the sample was the control, and glutathione (0.1 mg/mL) was the comparison. The percentage of reduction in absorbance at 734 nm was defined as the ABTS^+ scavenging ability of samples.

[2] = target: T1, ACE (from rabbit lungs) (Oryctolagus cuniculus, UniProt P12822); assay: ACE inhibitory kinetics (Lineweaver–Burk plot); type: biochemical; details: HHL 0.13–1.32 mmol/L as substrate, N = 3
T1 construct: ACE (0.1 U, from rabbit lungs, purity > 99.7%, CAS: 9015-82-1) was obtained from Sigma-Aldrich; purchased Sigma-Aldrich (St. Louis, MO, USA); host or cells: rabbit lung tissue
T1 sequence (P12822 34-1310): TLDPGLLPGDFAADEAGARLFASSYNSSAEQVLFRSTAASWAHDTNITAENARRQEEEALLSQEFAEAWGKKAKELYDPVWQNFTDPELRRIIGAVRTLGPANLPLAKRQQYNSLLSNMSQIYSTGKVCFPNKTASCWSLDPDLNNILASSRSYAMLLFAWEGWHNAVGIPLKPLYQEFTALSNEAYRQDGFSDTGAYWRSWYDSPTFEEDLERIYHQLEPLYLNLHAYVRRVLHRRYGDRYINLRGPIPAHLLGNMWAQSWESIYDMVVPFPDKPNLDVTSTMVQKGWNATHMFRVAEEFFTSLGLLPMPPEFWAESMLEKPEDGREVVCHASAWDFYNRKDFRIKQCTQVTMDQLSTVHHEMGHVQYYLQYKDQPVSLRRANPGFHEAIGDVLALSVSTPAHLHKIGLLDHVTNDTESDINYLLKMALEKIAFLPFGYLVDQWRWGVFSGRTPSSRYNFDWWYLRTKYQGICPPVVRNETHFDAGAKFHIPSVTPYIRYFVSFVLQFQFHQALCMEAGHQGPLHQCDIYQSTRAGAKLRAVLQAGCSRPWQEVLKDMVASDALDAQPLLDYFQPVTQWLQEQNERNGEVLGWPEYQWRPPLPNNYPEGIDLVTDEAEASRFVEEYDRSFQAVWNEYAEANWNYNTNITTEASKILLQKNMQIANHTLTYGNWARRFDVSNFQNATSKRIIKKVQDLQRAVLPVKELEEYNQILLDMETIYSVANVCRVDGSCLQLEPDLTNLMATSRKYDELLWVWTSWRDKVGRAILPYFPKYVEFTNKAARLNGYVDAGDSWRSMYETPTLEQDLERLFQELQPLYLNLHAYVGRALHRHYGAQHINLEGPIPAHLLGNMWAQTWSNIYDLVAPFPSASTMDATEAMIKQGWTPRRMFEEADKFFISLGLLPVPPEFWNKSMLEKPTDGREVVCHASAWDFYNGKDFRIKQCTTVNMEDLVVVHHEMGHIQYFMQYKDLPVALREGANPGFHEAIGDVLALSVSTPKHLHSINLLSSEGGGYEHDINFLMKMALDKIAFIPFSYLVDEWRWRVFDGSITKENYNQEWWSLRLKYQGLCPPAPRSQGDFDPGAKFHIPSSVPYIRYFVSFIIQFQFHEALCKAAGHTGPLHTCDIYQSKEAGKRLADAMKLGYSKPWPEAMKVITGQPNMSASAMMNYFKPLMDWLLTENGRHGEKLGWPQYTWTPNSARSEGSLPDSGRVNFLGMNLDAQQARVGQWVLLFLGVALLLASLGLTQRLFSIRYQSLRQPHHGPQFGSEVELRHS
Excerpt: The hippuric acid method was used to measure the samples’ inhibitory ability towards ACE, following the same procedures as Zheng et al.. The absorbance at 228 nm was the hippuric acid content and represented ACE activity; therefore, the inhibitory ability of samples towards ACE was defined as the percentage of reduction in the absorption at 228 nm between the control and sample groups. Moreover, the ACE inhibitory kinetic of SAGH peptides was investigated by employing a Lineweaver–Burk plot with N-hippuryl-L-histidyl-L-leucine (HHL, 0.13–1.32 mmol/L) as the substrate.

[3] = system: Caco-2 cells; assay: Iron transmembrane absorption across Caco-2 cell monolayers; type: in vitro ADME; details: chelate 320 μg/mL, p < 0.05
Experimental: In a 24-well Transwell culture plate, Caco-2 cells (0.75 × 10^6 cells/cm^2) were cultivated using Dulbecco’s modified Eagle’s medium that contained fetal bovine serum (20 g/L), streptomycin (1 μg/μL), penicillin (1 μg/μL), and neomycin (1 μg/μL), and it was refreshed every 48 h. After 12–14 d of incubation at 5% CO2 and 37 °C, the transepithelial electrical resistance was more than 400 Ω·cm^2, and a monolayer Caco-2 cell mode was formed. Afterwards, the medium was removed, and Hank’s Balanced Salt Solution was added. After 30 min of cultivation at 5% CO2 and 37 °C, Hank’s Balanced Salt Solution was removed from the apical side, and SAGH peptide–ferrous chelates (320 μg/mL) were added and then cultivated at 5% CO2 and 37 °C for 150 min. Every 30 min, the ferrous amount of the basolateral-side cultivate solution was measured using the o-phenanthroline method.

[4] = Hydroxyl radical scavenging activity (β-deoxyribose oxidation method); type: physicochemical; details: at 100 μg/mL
Experimental: As described by Wang et al. and Vásquez et al., the hydroxyl (·OH) and superoxide ( O2−· ) radicals’ scavenging activity was measured using the β-deoxyribose oxidation and pyrogallol auto-oxidation methods, respectively. The comparison was conducted when the samples were replaced by glutathione (0.1 mg/mL).

PMYGGGMV–ferrous chelate: chelate prepared by reacting the peptide with FeCl2 at pH 6.5 (also: ferrous iron chelate (reaction with FeCl2))
ABTS+ Scavenging Activity (%) Before Gastrointestinal Digestion [1]: 35.27 ± 2.45 d %
ACE inhibition mode [2]: increased the Km value of the Michaelis–Menten kinetic curves but did not change the Vmax
ability to improve ferrous transmembrane absorption ([3]; Caco-2 monolayer, Transwell, TEER > 400 Ω·cm2, apical to basolateral, comparators 0.3 mg/mL, HBSS, 37 °C, 5% CO2, 150 min, o-phenanthroline every 30 min, N = 3): greater than that of ferrous chloride
iron transport across the Caco-2 monolayer compared with ferrous lactate ([3]; during 120–150 min, apical to basolateral, ferrous lactate 0.3 mg/mL): better
·OH Scavenging Activity (%) Before Gastrointestinal Digestion [4]: 57.69 ± 0.07 d %
·OH Scavenging Activity (%) Before Gastrointestinal Digestion ([4]; listed as PMYGGGMV–ferrous chelates): 60.04%
